Experimental data: patent publication US20220015363A1, “SMALL MOLECULE PATHOGEN DISPERSAL AGENT” (The Trustees of Princeton University, priority 2020, published 2022)

What was measured:
P. aeruginosa = assay: orientation of surface attachment (vertical vs horizontal) of cells; type: cell-based; details: 10 mM MHQ; ntotal=1331; PBS control 76%
Experimental: Upon treatment with phosphate buffered saline (PBS), 76% (ntotal=1347) of the cells attached to the surface vertically. In contrast, upon treatment with, e.g., 10 mM MHQ, only 5% (ntotal=1331) of the cells attached to the surface vertically. A similar behavior is found between MHQ-treated WT cells and mutants lacking Type IV pilin subunits (PilA), as only 7% (ntotal=1995) of ΔpilA cells were attached vertically even in PBS treatment.

[1] = system: type IV pili (T4P) twitching motility; assay: twitching assay (spread under agar, crystal violet staining); type: cell-based, P. aeruginosa
Description: Since T4P is required for twitching motility, the dispersing compound's effect on a pathogen can be seen in a twitching assay. In this assay, cells are placed underneath agar and allowed to spread from their starting spot along the bottom surface of a Petri dish. The extent of this spread is visualized with crystal violet staining and quantified. In the presence of agar made with LB, WT cells traveled 11±0.7 mm (mean±SD) from the starting spot. […] The effect of MHQ on twitching depended on T4P, as ΔpilA cells that lack T4P traveled similar distances away from the starting spot in the absence of MHQ (1.9±0.1 mm) or in the presence of MHQ (2.3±0.3 mm).

T4P activity = assay: T4P dynamics imaging by cysteine-labeling of PilA; type: cell-based, P. aeruginosa; details: 2 mM MHQ for 5 min; n=493; PBS control 77%
Experimental: To directly assay the effect of a dispersing compound on T4P activity, the recently developed cysteine-labeling approach can be used to fluorescently label T4P and image their dynamics. This approach uses a cysteine point mutation in an unstructured loop of the PilA pilin subunit to label the pili through maleimide-based click chemistry. In one experiment, the pili of untreated cells were labeled and then imaged T4P dynamics after a brief (5 min) exposure to MHQ or PBS control. Following a 5 min mock treatment with PBS, T4P were seen extending and retracting from 77% of the cells (n=473). […] Since the T4P was labeled before MHQ treatment and the treatment was brief, this effect cannot be attributed to effects of MHQ on TFP expression or labeling. Similar results can be seen with other disclosed dispersing compounds.

`Cc1cc(O)c2ccccc2n1` [MHQ, 2-methyl-4-hydroxyquinoline] was tested, and the “cells attached to the surface vertically” value (P. aeruginosa) was 5%, the “distance traveled from the starting spot” value ([1]; WT cells, agar made with LB and 2 mM MHQ, mean±SD, LB alone 11±0.7 mm) was 7±0.5 mm and the “distance traveled from the starting spot” value ([1]; ΔpilA cells that lack T4P, in the presence of MHQ, without MHQ 1.9±0.1 mm) was 2.3±0.3 mm. For the same compound, the “cells exhibiting any T4P extension or retraction events” value (T4P activity) was 4%.
